The values that follow come from US8530667B2, “Herbicides” (Syngenta Limited, priority 2007, dated 2013).

Structures are written as SMILES.

Format in all cases: in vivo
The subject of test [1] is Alopecurus myosuroides (ALOMY). Description: Example A pre-emergence herbicidal activity, glasshouse pot test. To be noted: evaluated 19 or 20 days later, read-out: Pre-Emergence Activity ALOMY (100=total damage to plant; 0=no damage to plant); for pest or weed control at 250 g/ha: Rate 250 g/ha; for pest or weed control at 500 g/ha: Rate 500 g/ha. As to the method:
(§1) Seeds of a variety of test species were sown in standard soil in pots. After cultivation for one day (pre-emergence) or after 10 days cultivation (post-emergence) under controlled conditions in a glasshouse, the plants were sprayed with an aqueous spray solution derived from the formulation of the technical active ingredient in 0.6 ml acetone and 45 ml formulation solution containing 10.6% Emulsogen EL (Registry number 61791-12-6), 42.2% N-methylpyrrolidone, 42.2% dipropylene glycol monomethyl ether (Registry number 34590-94-8) and 0.2% X-77 (Registry number 11097-66-8). The test plants were then grown in a greenhouse under optimum conditions until, 14 or 15 days later for post-emergence and 19 or 20 days for pre-emergence, the test was evaluated (100=total damage to plant; 0=no damage to plant). Alopecurus myosuroides (ALOMY), Avena fatua (AVEFA), Lolium perenne (LOLPE), Setaria faberi (SETFA), Digitaria sanguinalis (DIGSA), Echinochloa crus-galli (ECHCG)

In test [2] the test system is Avena fatua (AVEFA). The test is described as above. To be noted: evaluated 19 or 20 days later, read-out: Pre-Emergence Activity AVEFA (100=total damage to plant; 0=no damage to plant); for pest or weed control at 250 g/ha: Rate 250 g/ha; for pest or weed control at 500 g/ha: Rate 500 g/ha. The procedure:
as §1

Test [3] has as its system Digitaria sanguinalis (DIGSA). Described as above. To be noted: evaluated 19 or 20 days later, read-out: Pre-Emergence Activity DIGSA (100=total damage to plant; 0=no damage to plant); for pest or weed control at 250 g/ha: Rate 250 g/ha; for pest or weed control at 500 g/ha: Rate 500 g/ha. The procedure: as §1
Test [4] has as its system Echinochloa crus-galli (ECHCG). The description is as above. Conditions: evaluated 19 or 20 days later, read-out: Pre-Emergence Activity ECHCG (100=total damage to plant; 0=no damage to plant); for pest or weed control at 250 g/ha: Rate 250 g/ha; for pest or weed control at 500 g/ha: Rate 500 g/ha. As to the method:
as §1

Test [5] has as its system Lolium perenne (LOLPE). Described as above. To be noted: evaluated 19 or 20 days later, read-out: Pre-Emergence Activity LOLPE (100=total damage to plant; 0=no damage to plant); for pest or weed control at 250 g/ha: Rate 250 g/ha; for pest or weed control at 500 g/ha: Rate 500 g/ha. The procedure:
as §1

Test [6] has as its system Setaria faberi (SETFA). Described as above. Conditions: evaluated 19 or 20 days later, read-out: Pre-Emergence Activity SETFA (100=total damage to plant; 0=no damage to plant); for pest or weed control at 250 g/ha: Rate 250 g/ha; for pest or weed control at 500 g/ha: Rate 500 g/ha. As to the method:
as §1

In test [7] the test system is Alopecurus myosuroides (ALOMY). The test can be described thus: Example A post-emergence herbicidal activity, glasshouse pot test. Conditions: Rate 125 g/ha, evaluated 14 or 15 days later, read-out: Post-Emergence Activity ALOMY (100=total damage to plant; 0=no damage to plant). As to the method: as §1
For test [8], the system named is Avena fatua (AVEFA). Described as above. To be noted: Rate 125 g/ha, evaluated 14 or 15 days later, read-out: Post-Emergence Activity AVEFA (100=total damage to plant; 0=no damage to plant). As to the method: as §1
Test [9] relates to Digitaria sanguinalis (DIGSA). The test is described as above. To be noted: Rate 125 g/ha, evaluated 14 or 15 days later, read-out: Post-Emergence Activity DIGSA (100=total damage to plant; 0=no damage to plant). As to the method:
as §1

Test [10] has as its system Echinochloa crus-galli (ECHCG). Described as above. To be noted: Rate 125 g/ha, evaluated 14 or 15 days later, read-out: Post-Emergence Activity ECHCG (100=total damage to plant; 0=no damage to plant). The procedure: as §1
In test [11] the test system is Lolium perenne (LOLPE). Described as above. To be noted: Rate 125 g/ha, evaluated 14 or 15 days later, read-out: Post-Emergence Activity LOLPE (100=total damage to plant; 0=no damage to plant). As to the method:
as §1

Test [12] has as its system Setaria faberi (SETFA). The description is as above. To be noted: Rate 125 g/ha, evaluated 14 or 15 days later, read-out: Post-Emergence Activity SETFA (100=total damage to plant; 0=no damage to plant). As to the method: as §1

Regarding `Cc1sc(-c2ccc(Cl)cc2)nc1C1C(=O)[C@H]2[C@@H]3CC[C@@](C)(O3)[C@H]2C1=O` (mixture of isomers) [Compound T24], the pest or weed control at 250 g/ha in test [1] was determined as 90%; in test [2], 60%; in test [3], 100%; in test [4], 100%; in [5], 90%; in [6] it was 100%. Also, the pest or weed control at 125 g/ha in test [7] turned out to be 70%; in test [8] it was 70%; in test [9], 90%; in test [10] it was 100%; in test [11], 30%; in test [12], 80%.
Turning to `CCc1sc(-c2ccc(Cl)cc2)nc1C1C(=O)[C@H]2[C@@H]3CC[C@@](C)(O3)[C@H]2C1=O` (mixture of isomers) [Compound T25, 4-[2-(4-chloro-phenyl)-5-ethyl-thiazol-4-yl]-1-methyl-10-oxa-tricyclo[5.2.1.0*2,6*]decane-3,5-dione], the pest or weed control at 250 g/ha was 90% in test [1]; 90% in [2]; 100% in [3]; 100% in test [4]; 100% in test [5]; 100% in test [6]. The pest or weed control at 125 g/ha in [7] was determined as 100%; in test [8], 100%; in [9], 100%; in test [10] it was 100%; in test [11] it was 50%; in test [12], 90%.
Take `Cc1sc(-c2ccc(Cl)cc2)cc1C1=C(OC(=O)C(C)(C)C)[C@@H]2[C@H](C1=O)[C@H]1CC[C@@H]2O1` (racemic) [Compound P1]: the pest or weed control at 250 g/ha worked out at 30% in test [1]; 0% in test [2]; 0% in test [3]; 20% in test [4]; 30% in [5]; 0% in test [6]. Moreover, the pest or weed control at 125 g/ha in [7] is 70%; in test [8], 80%; in [9], 80%; in test [10], 100%; in test [11] it was 60%; in test [12], 90%.
Turning to `Cc1sc(-c2ccc(Cl)cc2)cc1C1=C(OC(=O)C(C)C)[C@@H]2[C@H](C1=O)[C@H]1CC[C@@H]2O1` (racemic) [Compound P2], the pest or weed control at 250 g/ha in test [1] amounted to 30%; in test [2], 0%; in test [3], 0%; in test [4], 50%; in test [5], 50%; in test [6] it was 0%. The pest or weed control at 125 g/ha in [7] came to 90%; in [8], 90%; in test [9] it was 80%; in test [10] it was 100%; in [11], 70%; in [12], 80%.
For `Cc1scc(Br)c1C1C(=O)[C@@H]2[C@H](C1=O)[C@H]1CC[C@@H]2O1` (stereo partly drawn) [Compound T4], the pest or weed control at 500 g/ha in test [1] was 70%; in test [2], 70%; in test [3], 30%; in test [4] it was 70%; in test [5], 70%; in test [6], 70%. In addition, the pest or weed control at 125 g/ha in test [7] stood at 10%; in [8], 30%; in test [9] it was 60%; in [10] it was 80%; in test [11] it was 40%; in [12], 40%.
As to `Cc1sc(Br)cc1C1C(=O)[C@@H]2[C@H](C1=O)[C@H]1CC[C@@H]2O1` (stereo partly drawn) [Compound T5], the pest or weed control at 500 g/ha in test [1] amounted to 0%; in test [2] it was 20%; in [3], 0%; in test [4], 0%; in [5], 0%; in [6], 0%. In addition, the pest or weed control at 125 g/ha in [7] was found to be 10%; in test [8], 10%; in test [9], 30%; in test [10], 0%; in test [11], 0%; in test [12] it was 10%.
As to `Cc1sc(-c2ccccn2)cc1C1C(=O)[C@@H]2[C@H](C1=O)[C@H]1CC[C@@H]2O1` (stereo partly drawn) [Compound T6], the pest or weed control at 500 g/ha worked out at 0% in test [1]; 60% in test [2]; 0% in [3]; 0% in [4]; 0% in test [5]; 0% in test [6]. The pest or weed control at 125 g/ha in [7] stood at 10%; in [8] it was 10%; in test [9] it was 20%; in test [10], 30%; in [11], 10%; in test [12], 40%.
As for `Cc1nc(-c2cc(C3C(=O)[C@@H]4[C@H](C3=O)[C@H]3CC[C@@H]4O3)c(C)s2)cs1` (stereo partly drawn) [Compound T7], the pest or weed control at 500 g/ha in test [1] turned out to be 10%; in test [2], 10%; in test [3] it was 20%; in test [4], 0%; in test [5] it was 10%; in [6], 0%. In addition, the pest or weed control at 125 g/ha was determined as 0% in test [7]; 0% in test [8]; 0% in [9]; 50% in [10]; 0% in test [11]; 0% in test [12].
As for `Cc1csc(C)c1C1C(=O)[C@@H]2[C@H](C1=O)[C@H]1CC[C@@H]2O1` (stereo partly drawn) [Compound T10], the pest or weed control at 250 g/ha turned out to be 10% in [1]; 10% in test [2]; 30% in [3]; 30% in test [4]; 20% in [5]; 0% in test [6]. The pest or weed control at 125 g/ha was determined as 10% in test [7]; 40% in test [8]; 40% in test [9]; 60% in test [10]; 20% in test [11]; 60% in test [12].
